Measured values taken from PubChem BioAssay (NCI).
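48-hour exposure; five concentrations; linearly interpolated endpoints. TGI: total growth inhibition.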

Legend:
Test in all cases: growth of human tumour cells (NCI), 48 h
786-0 renal = tested on: 786-0 renal
A498 renal = tested on: A498 renal
A549 NSCLC = tested on: A549 NSCLC
ACHN renal = tested on: ACHN renal
BT-549 breast = tested on: BT-549 breast
CAKI-1 renal = tested on: CAKI-1 renal
CCRF-CEM leukemia = tested on: CCRF-CEM leukemia
COLO 205 colon = tested on: COLO 205 colon
DU-145 prostate = tested on: DU-145 prostate
EKVX NSCLC = tested on: EKVX NSCLC
HCT-116 colon = tested on: HCT-116 colon
HCT-15 colon = tested on: HCT-15 colon
HL-60(TB) leukemia = tested on: HL-60(TB) leukemia
HOP-62 NSCLC = tested on: HOP-62 NSCLC
HOP-92 NSCLC = tested on: HOP-92 NSCLC
HS 578T breast = tested on: HS 578T breast
HT29 colon = tested on: HT29 colon
IGROV1 ovarian = tested on: IGROV1 ovarian
K-562 leukemia = tested on: K-562 leukemia
KM12 colon = tested on: KM12 colon
LOX IMVI melanoma = tested on: LOX IMVI melanoma
M14 melanoma = tested on: M14 melanoma
MALME-3M melanoma = tested on: MALME-3M melanoma
MCF7 breast = tested on: MCF7 breast
MDA-MB-231 breast = tested on: MDA-MB-231 breast
MDA-MB-435 = tested on: MDA-MB-435
MDA-N = tested on: MDA-N
MOLT-4 leukemia = tested on: MOLT-4 leukemia
NCI-H226 lung = tested on: NCI-H226 lung
NCI-H23 lung = tested on: NCI-H23 lung
NCI-H460 lung = tested on: NCI-H460 lung
NCI-H522 lung = tested on: NCI-H522 lung
NCI/ADR-RES ovarian = tested on: NCI/ADR-RES ovarian
OVCAR-3 ovarian = tested on: OVCAR-3 ovarian
OVCAR-4 ovarian = tested on: OVCAR-4 ovarian
OVCAR-5 ovarian = tested on: OVCAR-5 ovarian
OVCAR-8 ovarian = tested on: OVCAR-8 ovarian
PC-3 prostate = tested on: PC-3 prostate
RPMI-8226 leukemia = tested on: RPMI-8226 leukemia
RXF 393 renal = tested on: RXF 393 renal
SF-268 CNS = tested on: SF-268 CNS
SF-295 CNS = tested on: SF-295 CNS
SF-539 CNS = tested on: SF-539 CNS
SK-MEL-2 melanoma = tested on: SK-MEL-2 melanoma
SK-MEL-28 melanoma = tested on: SK-MEL-28 melanoma
SK-MEL-5 melanoma = tested on: SK-MEL-5 melanoma
SK-OV-3 ovarian = tested on: SK-OV-3 ovarian
SN12C renal = tested on: SN12C renal
SNB-19 CNS = tested on: SNB-19 CNS
SNB-75 CNS = tested on: SNB-75 CNS
SR leukemia = tested on: SR leukemia
SW-620 colon = tested on: SW-620 colon
T-47D breast = tested on: T-47D breast
TK-10 renal = tested on: TK-10 renal
U251 CNS = tested on: U251 CNS
UACC-257 melanoma = tested on: UACC-257 melanoma
UACC-62 melanoma = tested on: UACC-62 melanoma
UO-31 renal = tested on: UO-31 renal

Structure (SMILES): Oc1c(CN2CCOCC2)ccc(CN2CCOCC2)c1O
- TGI (786-0 renal): > 100 µM
- TGI (A498 renal): > 100 µM
- TGI (A549 NSCLC): > 100 µM
- TGI (ACHN renal): > 100 µM
- TGI (BT-549 breast): > 100 µM
- TGI (CAKI-1 renal): > 100 µM
- TGI (CCRF-CEM leukemia): 12.9 µM
- TGI (COLO 205 colon): > 100 µM
- TGI (DU-145 prostate): 83 µM
- TGI (EKVX NSCLC): > 100 µM
- TGI (HCT-116 colon): > 100 µM
- TGI (HCT-15 colon): > 100 µM
- TGI (HL-60(TB) leukemia): 27.2 µM
- TGI (HOP-62 NSCLC): > 100 µM
- TGI (HOP-92 NSCLC): > 100 µM
- TGI (HS 578T breast): > 100 µM
- TGI (HT29 colon): > 100 µM
- TGI (IGROV1 ovarian): > 100 µM
- TGI (K-562 leukemia): > 100 µM
- TGI (KM12 colon): > 100 µM
- TGI (LOX IMVI melanoma): > 100 µM
- TGI (M14 melanoma): 84 µM
- TGI (MALME-3M melanoma): > 100 µM
- TGI (MCF7 breast): > 100 µM
- TGI (MDA-MB-231 breast): > 100 µM
- TGI (MDA-MB-435): > 100 µM
- TGI (MDA-N): > 100 µM
- TGI (MOLT-4 leukemia): > 100 µM
- TGI (NCI-H226 lung): 88.9 µM
- TGI (NCI-H23 lung): > 100 µM
- TGI (NCI-H460 lung): 82.8 µM
- TGI (NCI-H522 lung): > 100 µM
- TGI (NCI/ADR-RES ovarian): > 100 µM
- TGI (OVCAR-3 ovarian): 66.3 µM
- TGI (OVCAR-4 ovarian): > 100 µM
- TGI (OVCAR-5 ovarian): > 100 µM
- TGI (OVCAR-8 ovarian): > 100 µM
- TGI (PC-3 prostate): > 100 µM
- TGI (RPMI-8226 leukemia): > 100 µM
- TGI (RXF 393 renal): > 100 µM
- TGI (SF-268 CNS): > 100 µM
- TGI (SF-295 CNS): 96.3 µM
- TGI (SF-539 CNS): > 100 µM
- TGI (SK-MEL-2 melanoma): 94.6 µM
- TGI (SK-MEL-28 melanoma): > 100 µM
- TGI (SK-MEL-5 melanoma): 67 µM
- TGI (SK-OV-3 ovarian): > 100 µM
- TGI (SN12C renal): 88.4 µM
- TGI (SNB-19 CNS): > 100 µM
- TGI (SNB-75 CNS): 75.3 µM
- TGI (SR leukemia): > 100 µM
- TGI (SW-620 colon): > 100 µM
- TGI (T-47D breast): > 100 µM
- TGI (TK-10 renal): > 100 µM
- TGI (U251 CNS): > 100 µM
- TGI (UACC-257 melanoma): 88.7 µM
- TGI (UACC-62 melanoma): 61.2 µM
- TGI (UO-31 renal): 72.2 µM
